Values after ≈ are worked out from the molar mass of the structure shown.
Experiments:
Bacillus subtilis = test: Antibacterial activity against Bacillus subtilis BS01 assessed as reduction in microbial growth after 12 hrs by microbroth dilution method; assay type: functional
[1] = tested on: Bacillus amyloliquefaciens; test: Antibacterial activity against Bacillus amyloliquefaciens GDMCC 60233 assessed as reduction in microbial growth after 12 hrs by microbroth dilution method; assay type: functional
Staphylococcus aureus [2] = test: Antibacterial activity against Staphylococcus aureus ATCC 6538 assessed as reduction in microbial growth after 12 hrs by microbroth dilution method; assay type: functional
Streptococcus agalactiae = test: Antibacterial activity against Streptococcus agalactiae ATCC 13813 assessed as reduction in microbial growth after 12 hrs by microbroth dilution method; assay type: functional
Staphylococcus aureus [3] = test: Antibacterial activity against methicillin-resistant Staphylococcus aureus assessed as reduction in microbial growth after 12 hrs by microbroth dilution method; assay type: functional
[4] = molecular target: Tyrosine-protein phosphatase non-receptor type 6 (Homo sapiens, UniProt P29350); test: Inhibition of human SHP1
Tyrosine-protein phosphatase non-receptor type 6, sequence (P29350 whole entry): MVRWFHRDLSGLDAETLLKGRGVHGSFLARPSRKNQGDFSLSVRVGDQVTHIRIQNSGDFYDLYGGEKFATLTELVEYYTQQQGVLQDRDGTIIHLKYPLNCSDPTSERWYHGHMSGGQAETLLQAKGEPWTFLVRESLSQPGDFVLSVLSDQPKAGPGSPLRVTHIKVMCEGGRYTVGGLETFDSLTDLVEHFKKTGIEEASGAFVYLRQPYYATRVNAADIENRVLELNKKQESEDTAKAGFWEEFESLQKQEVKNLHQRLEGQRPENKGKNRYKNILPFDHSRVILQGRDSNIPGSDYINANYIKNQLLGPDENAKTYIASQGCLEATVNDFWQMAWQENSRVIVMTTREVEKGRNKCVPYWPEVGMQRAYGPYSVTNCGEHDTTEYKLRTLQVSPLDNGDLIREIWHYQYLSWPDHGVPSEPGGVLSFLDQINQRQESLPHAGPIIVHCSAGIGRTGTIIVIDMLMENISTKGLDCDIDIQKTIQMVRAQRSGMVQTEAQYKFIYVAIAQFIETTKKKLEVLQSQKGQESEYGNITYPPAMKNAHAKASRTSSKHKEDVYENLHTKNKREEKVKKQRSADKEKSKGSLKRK

[5] = molecular target: T1, Receptor-type tyrosine-protein phosphatase C (Homo sapiens, UniProt P08575); test: Inhibition of human CD45
T1 sequence (P08575 whole entry): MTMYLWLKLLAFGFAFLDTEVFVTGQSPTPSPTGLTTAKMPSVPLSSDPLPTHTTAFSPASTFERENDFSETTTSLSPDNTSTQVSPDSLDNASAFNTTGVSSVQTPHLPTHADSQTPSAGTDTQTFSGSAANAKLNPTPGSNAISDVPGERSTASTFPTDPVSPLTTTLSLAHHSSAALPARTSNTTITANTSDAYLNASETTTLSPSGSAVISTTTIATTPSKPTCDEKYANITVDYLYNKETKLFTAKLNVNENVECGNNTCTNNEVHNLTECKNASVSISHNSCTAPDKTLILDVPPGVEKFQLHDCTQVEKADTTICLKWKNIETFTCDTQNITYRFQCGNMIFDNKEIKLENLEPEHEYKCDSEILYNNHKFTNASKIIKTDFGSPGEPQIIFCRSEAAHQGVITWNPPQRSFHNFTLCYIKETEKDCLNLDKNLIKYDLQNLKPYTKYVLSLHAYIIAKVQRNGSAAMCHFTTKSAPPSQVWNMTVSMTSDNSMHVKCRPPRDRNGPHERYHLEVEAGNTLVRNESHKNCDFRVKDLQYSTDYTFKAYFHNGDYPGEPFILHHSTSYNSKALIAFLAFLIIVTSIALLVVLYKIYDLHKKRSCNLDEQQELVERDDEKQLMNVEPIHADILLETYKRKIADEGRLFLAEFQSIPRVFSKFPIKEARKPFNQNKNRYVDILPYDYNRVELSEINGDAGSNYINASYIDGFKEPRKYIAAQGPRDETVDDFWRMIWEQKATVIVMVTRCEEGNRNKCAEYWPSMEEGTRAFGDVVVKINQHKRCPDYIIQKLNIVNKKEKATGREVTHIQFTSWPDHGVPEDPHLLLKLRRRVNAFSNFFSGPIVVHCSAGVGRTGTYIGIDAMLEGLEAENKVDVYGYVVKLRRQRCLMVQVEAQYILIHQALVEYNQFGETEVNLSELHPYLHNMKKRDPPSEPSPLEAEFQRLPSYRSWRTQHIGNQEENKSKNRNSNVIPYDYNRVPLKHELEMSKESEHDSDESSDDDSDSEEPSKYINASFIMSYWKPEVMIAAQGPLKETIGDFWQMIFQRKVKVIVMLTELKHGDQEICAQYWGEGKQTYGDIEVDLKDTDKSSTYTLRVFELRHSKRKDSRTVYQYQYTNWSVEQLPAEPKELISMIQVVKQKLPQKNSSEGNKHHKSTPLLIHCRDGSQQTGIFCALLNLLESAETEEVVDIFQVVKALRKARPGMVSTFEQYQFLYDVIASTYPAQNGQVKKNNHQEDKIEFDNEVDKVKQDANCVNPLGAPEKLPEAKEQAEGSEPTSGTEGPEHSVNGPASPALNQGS

[6] = molecular target: T2, Tyrosine-protein phosphatase non-receptor type 2 (Homo sapiens, UniProt P17706); test: Inhibition of human TCPTP
T2 sequence (P17706 whole entry): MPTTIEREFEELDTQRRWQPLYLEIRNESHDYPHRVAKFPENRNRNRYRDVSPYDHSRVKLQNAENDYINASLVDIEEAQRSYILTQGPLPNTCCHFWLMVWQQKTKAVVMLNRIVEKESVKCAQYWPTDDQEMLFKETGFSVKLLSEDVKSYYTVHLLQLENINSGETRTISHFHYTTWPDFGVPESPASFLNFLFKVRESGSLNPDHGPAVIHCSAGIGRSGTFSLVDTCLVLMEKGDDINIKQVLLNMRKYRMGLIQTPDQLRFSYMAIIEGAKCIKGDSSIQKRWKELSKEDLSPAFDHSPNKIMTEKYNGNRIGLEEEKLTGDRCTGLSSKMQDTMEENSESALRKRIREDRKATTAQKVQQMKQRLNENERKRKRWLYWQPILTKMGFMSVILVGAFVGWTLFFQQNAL

NCI-H1975 = test: Cytotoxicity against human NCI-H1975 cells assessed as reduction in cell viability after 24 hrs by CCK8 assay; assay type: functional, cell-based; conditions: NCI-H1975, 24 h
Escherichia coli [7] = test: microbe, parasite or virus in culture; assay type: functional; conditions: ATCC 25922, time 12 hrs
Description: Antibacterial activity against Escherichia coli ATCC 25922 assessed as reduction in microbial growth after 12 hrs by microbroth dilution method

[8] = molecular target: T3, Tyrosine-protein phosphatase non-receptor type 1 (Homo sapiens, UniProt P18031); test: Inhibition of human PTP1B
T3 sequence (P18031 whole entry): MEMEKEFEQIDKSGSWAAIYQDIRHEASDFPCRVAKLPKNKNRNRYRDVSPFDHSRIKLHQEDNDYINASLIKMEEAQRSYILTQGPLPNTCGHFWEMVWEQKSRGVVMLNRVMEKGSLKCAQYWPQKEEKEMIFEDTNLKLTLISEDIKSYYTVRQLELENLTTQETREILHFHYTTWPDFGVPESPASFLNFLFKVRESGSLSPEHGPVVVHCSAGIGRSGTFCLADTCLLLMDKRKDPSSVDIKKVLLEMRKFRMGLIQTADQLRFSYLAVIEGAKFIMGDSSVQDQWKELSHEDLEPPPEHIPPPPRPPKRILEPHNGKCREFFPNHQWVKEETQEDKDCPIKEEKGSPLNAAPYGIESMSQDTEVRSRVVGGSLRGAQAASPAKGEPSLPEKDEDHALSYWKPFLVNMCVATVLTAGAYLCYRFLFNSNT

[9] = molecular target: Receptor-type tyrosine-protein phosphatase F (Homo sapiens, UniProt P10586); test: Inhibition of human LAR
Receptor-type tyrosine-protein phosphatase F, sequence (P10586 whole entry): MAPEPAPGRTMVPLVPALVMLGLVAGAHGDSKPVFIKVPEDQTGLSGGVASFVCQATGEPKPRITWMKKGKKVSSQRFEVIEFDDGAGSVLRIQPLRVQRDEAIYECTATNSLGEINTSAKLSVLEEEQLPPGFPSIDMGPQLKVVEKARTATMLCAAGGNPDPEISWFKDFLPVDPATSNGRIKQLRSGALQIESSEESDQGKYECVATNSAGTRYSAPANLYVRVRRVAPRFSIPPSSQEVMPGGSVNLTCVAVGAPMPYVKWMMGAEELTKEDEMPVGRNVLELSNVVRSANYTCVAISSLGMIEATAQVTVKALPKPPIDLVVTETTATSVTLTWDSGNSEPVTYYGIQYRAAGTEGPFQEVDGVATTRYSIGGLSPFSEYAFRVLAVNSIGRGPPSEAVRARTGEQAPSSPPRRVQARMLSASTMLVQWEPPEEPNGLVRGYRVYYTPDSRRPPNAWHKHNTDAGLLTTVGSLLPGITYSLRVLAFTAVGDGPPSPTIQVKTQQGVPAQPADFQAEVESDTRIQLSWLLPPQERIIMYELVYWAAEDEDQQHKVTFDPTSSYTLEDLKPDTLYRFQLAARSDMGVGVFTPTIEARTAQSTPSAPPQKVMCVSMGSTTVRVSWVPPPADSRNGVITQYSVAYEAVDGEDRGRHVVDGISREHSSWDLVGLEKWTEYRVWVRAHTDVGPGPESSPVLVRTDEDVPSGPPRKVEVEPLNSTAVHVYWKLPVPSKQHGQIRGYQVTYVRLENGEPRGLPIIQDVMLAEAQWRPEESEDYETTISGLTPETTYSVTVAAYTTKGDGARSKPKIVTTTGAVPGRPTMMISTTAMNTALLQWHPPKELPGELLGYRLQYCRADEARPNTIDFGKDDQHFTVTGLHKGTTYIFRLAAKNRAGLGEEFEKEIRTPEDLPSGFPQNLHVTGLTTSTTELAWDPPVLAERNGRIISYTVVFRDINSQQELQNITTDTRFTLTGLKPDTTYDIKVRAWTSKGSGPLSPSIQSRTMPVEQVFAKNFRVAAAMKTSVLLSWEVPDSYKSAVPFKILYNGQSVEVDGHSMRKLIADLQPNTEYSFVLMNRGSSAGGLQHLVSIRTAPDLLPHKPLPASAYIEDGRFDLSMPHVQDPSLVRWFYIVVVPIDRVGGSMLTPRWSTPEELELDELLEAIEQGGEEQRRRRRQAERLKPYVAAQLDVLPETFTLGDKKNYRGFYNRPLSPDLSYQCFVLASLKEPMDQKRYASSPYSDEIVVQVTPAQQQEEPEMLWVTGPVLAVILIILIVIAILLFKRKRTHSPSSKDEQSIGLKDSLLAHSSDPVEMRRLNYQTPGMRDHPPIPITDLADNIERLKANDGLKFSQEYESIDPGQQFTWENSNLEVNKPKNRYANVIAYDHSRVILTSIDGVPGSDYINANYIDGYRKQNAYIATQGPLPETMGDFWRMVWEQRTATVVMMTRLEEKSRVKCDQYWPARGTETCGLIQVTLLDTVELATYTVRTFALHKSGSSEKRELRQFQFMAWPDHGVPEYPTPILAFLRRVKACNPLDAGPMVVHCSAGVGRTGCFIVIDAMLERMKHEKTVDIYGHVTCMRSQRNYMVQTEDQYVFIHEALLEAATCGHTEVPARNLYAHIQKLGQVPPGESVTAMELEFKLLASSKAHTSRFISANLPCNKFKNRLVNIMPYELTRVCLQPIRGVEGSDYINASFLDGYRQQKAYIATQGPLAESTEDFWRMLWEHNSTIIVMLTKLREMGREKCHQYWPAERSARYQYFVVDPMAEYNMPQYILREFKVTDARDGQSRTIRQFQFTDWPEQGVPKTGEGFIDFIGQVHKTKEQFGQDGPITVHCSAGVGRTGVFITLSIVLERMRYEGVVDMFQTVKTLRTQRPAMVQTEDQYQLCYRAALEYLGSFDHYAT

Escherichia coli [10] = test: Antibacterial activity against Escherichia coli assessed as reduction in microbial growth after 12 hrs by broth microdilution method; assay type: functional
Staphylococcus aureus [11] = test: Antibacterial activity against methicillin-resistant Staphylococcus aureus assessed as reduction in microbial growth after 12 hrs by broth microdilution method; assay type: functional

| SMILES | MIC (Bacillus subtilis) | MIC [1] | MIC (Staphylococcus aureus [2]) | MIC (Streptococcus agalactiae) | MIC (Staphylococcus aureus [3]) | IC50 [4] | IC50 [5] | IC50 [6] | IC50 (NCI-H1975) | MIC (Escherichia coli [7]) | IC50 [8] | IC50 [9] | MIC (Escherichia coli [10]) | MIC (Staphylococcus aureus [11]) |
| --- | --- | --- | --- | --- | --- | --- | --- | --- | --- | --- | --- | --- | --- | --- |
| CN[C@@H]1[C@@H](O)[C@@H](O[C@@H]2[C@@H](O)[C@H](O[C@H]3O[C@H](CN)CC[C@H]3N)[C@@H](N)C[C@H]2N)OC[C@]1(C)O.O=S(=O)(O)O | 0.5 µg/mL | 1 µg/mL | 2 µg/mL | 10 µg/mL | 5 µg/mL |  |  |  |  |  |  |  |  |  |
| CC(=O)c1ccc(NC2=C(Cl)C(=O)c3ccccc3C2=O)cc1 |  |  |  |  |  | 0.29 µM |  |  |  |  |  |  |  |  |
| C=C[C@@]1(C)C=C(C)[C@@H]2[C@@H]3[C@H](Oc4ccc(cc4)C[C@@H]4C(=O)NC(=O)[C@@H]4C(=O)[C@H]31)[C@@H]1[C@@H](C)C[C@@H](C)C[C@]12C | 20 µg/mL | 50 µg/mL | 100 µg/mL | 100 µg/mL | 50 µg/mL |  | 8.1 µM | 14 µM | 75 µM | 50 µg/mL (≈ 99.7 µM) | 25 µM | > 200 µM |  |  |
| CO[C@@]12Cc3ccc(cc3)O[C@H]3[C@@H]4[C@H]5C(=O)[C@](C[C@H](O)OO[C@@]5(C)[C@H]5O[C@@]5(C)[C@H]4[C@]4(C)C[C@H](C)C[C@H](C)[C@@H]34)(C1)C(=O)N2 | 50 µg/mL | 50 µg/mL | 50 µg/mL | 50 µg/mL | 50 µg/mL | > 200 µM | > 200 µM | > 200 µM | > 80 µM | 50 µg/mL (≈ 86 µM) | > 200 µM | > 200 µM |  |  |
| CO[C@@H]1C2Cc3ccc(cc3)O[C@H]3[C@@H]4[C@H]5C(=O)[C@@]1(C[C@H](O)[C@@]5(C)C=C(C)[C@H]4[C@]1(C)C[C@H](C)C[C@H](C)[C@@H]31)C(=O)N2 | 50 µg/mL | 100 µg/mL | 100 µg/mL | 100 µg/mL | 100 µg/mL | 80 µM | > 200 µM | > 200 µM |  | 50 µg/mL (≈ 93.7 µM) | 66 µM | > 200 µM | 2 µg/mL | 2 µg/mL |
| C[C@@H]1C[C@H](C)[C@H]2[C@H]3Oc4ccc(cc4)C[C@]4(O)C/C(=C(/O)[C@H]5[C@H](C)[C@H]6O[C@@]6(C)[C@H]([C@H]35)[C@]2(C)C1)C(=O)N4 | 20 µg/mL | 20 µg/mL | 50 µg/mL | 50 µg/mL | 50 µg/mL |  |  |  |  | 20 µg/mL (≈ 40.5 µM) |  |  |  |  |
| C=C[C@@]1(C)C=C(C)[C@@H]2[C@@H]3[C@@H](Oc4ccc(cc4)C[C@@]4(O)C/C(=C(/O)[C@H]31)C(=O)N4)[C@@H]1[C@@H](C)C[C@@H](C)C[C@]12C | 10 µg/mL | 20 µg/mL | 20 µg/mL | 20 µg/mL | 20 µg/mL | 100 µM | 100 µM | 92 µM | 72 µM | 20 µg/mL (≈ 39.7 µM) | 89 µM | > 200 µM |  |  |
| CO[C@@H]1C2Cc3ccc(cc3)O[C@H]3[C@H]4[C@@H](C(C)=C[C@]5(C)CC[C@@]1(C(=O)N2)C(=O)[C@H]45)[C@]1(C)C[C@H](C)C[C@H](C)[C@@H]31 | > 100 µg/mL | > 100 µg/mL | > 100 µg/mL | > 100 µg/mL | > 100 µg/mL |  |  |  |  | > 100 µg/mL |  |  |  |  |
| C[C@@H]1C[C@H](C)[C@H]2[C@H]3Oc4ccc(cc4)C[C@]4(O)C[C@]5(C[C@H](O)OO[C@@]6(C)[C@H]7O[C@@]7(C)[C@H]([C@H]3[C@H]6C5=O)[C@]2(C)C1)C(=O)N4 | 50 µg/mL | 50 µg/mL | 50 µg/mL | 50 µg/mL | 50 µg/mL | > 200 µM | > 200 µM | > 200 µM | > 80 µM | 50 µg/mL (≈ 88.1 µM) | > 200 µM | > 200 µM |  |  |
| CC1=C[C@@]2(C)[C@@H]3C(=O)[C@@]4(C[C@@H]2O)C(=O)NC(Cc2ccc(cc2)O[C@H]2[C@H]3[C@@H]1[C@]1(C)C[C@H](C)C[C@H](C)[C@@H]21)[C@H]4O | 10 µg/mL | 20 µg/mL | 10 µg/mL | 10 µg/mL | 10 µg/mL | 200 µM | > 200 µM | > 200 µM |  | 5 µg/mL (≈ 9.62 µM) | 100 µM | > 200 µM | 2 µg/mL | 2 µg/mL |
| CO[C@@H]1/C2=C3\O[C@@H](C)[C@@]4(C)C=C(C)[C@@H]5[C@H]([C@H](Oc6ccc(cc6)C[C@]1(O)NC2=O)[C@@H]1[C@@H](C)C[C@@H](C)C[C@]15C)[C@@H]34 |  |  |  |  |  | 63 µM | 190 µM | 79 µM | 55 µM |  | 39 µM | > 200 µM |  |  |
| CC(=O)[C@@H]1[C@@H]2[C@H](Oc3ccc(cc3)C[C@]3(O)C[C@]4(C[C@@H](O)[C@](C)(C=O)[C@@H]2C4=O)C(=O)N3)[C@@H]2[C@@H](C)C[C@@H](C)C[C@]21C | 100 µg/mL | 100 µg/mL | > 100 µg/mL | > 100 µg/mL | > 100 µg/mL | > 200 µM | > 200 µM | > 200 µM | > 80 µM | 100 µg/mL (≈ 181 µM) | > 200 µM | > 200 µM |  |  |
| CO[C@@]12Cc3ccc(cc3)O[C@H]3[C@H]([C@H]4C(=O)[C@](C[C@@H](O)[C@]4(C)C=O)(C1)C(=O)N2)[C@@H](C(C)=O)[C@]1(C)C[C@H](C)C[C@H](C)[C@@H]31 | 100 µg/mL | 100 µg/mL | > 100 µg/mL | > 100 µg/mL | > 100 µg/mL | 100 µM | > 200 µM | 130 µM |  | 100 µg/mL (≈ 177 µM) | 58 µM | > 200 µM |  |  |
| CO[C@@H]1C2Cc3ccc(cc3)O[C@H]3[C@@H]4[C@H]5C(=O)[C@@]1(C[C@@H](O)[C@@]5(C)C=C(C)[C@H]4[C@]1(C)C[C@H](C)C[C@H](C)[C@@H]31)C(=O)N2 | 10 µg/mL | 20 µg/mL | 20 µg/mL | 20 µg/mL | 20 µg/mL | 100 µM | > 200 µM | > 200 µM |  | 5 µg/mL (≈ 9.37 µM) | 100 µM | > 200 µM | 2 µg/mL | 2 µg/mL |

From ChEMBL document CHEMBL5120959, “Pyrrospirones K-Q, Decahydrofluorene-Class Alkaloids from the Marine-Derived Fungus Penicillium sp. SCSIO 41512” (J Nat Prod, 2022)
